# PubChem BioAssay AID330 (DTP/NCI, 2004)
# Where “and” joins values, the source holds several entries; their conditions need not be identical. Identical values can stand only once. Inconclusive results and toxic doses are left out.
# Test system: P388 leukemia ip, CD2F1 mice, survival T/C
# Assay: NCI In Vivo Anticancer Drug Screen. Data for tumor model P388 Leukemia (intraperitoneal) in CD2F1 (CDF1) mice
# Conditions: endpoint: median survival time, higher = longer survival
# Outline: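 Mice carrying the transplanted tumor received test compound or vehicle. Survival was recorded in each group, and the value is the treated-group measurement divided by that of the vehicle-treated control group.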
# [1] = dose: 50.0 mg/kg/injection, schedule: Q01DX001 (ip), vehicle: Klucel (hydroxypropylcellulose) (HPC)
# [2] = dose: 100.0 mg/kg/injection, schedule: Q04DX002 (ip), vehicle: saline with Tween-80
# [3] = dose: 25.0 mg/kg/injection, schedule: Q01DX009 (ip), vehicle: Klucel (hydroxypropylcellulose) (HPC)
# [4] = dose: 50.0 mg/kg/injection, schedule: Q01DX009 (ip), vehicle: saline with Tween-80
# [5] = dose: 25.0 mg/kg/injection, schedule: Q01DX005 (ip), vehicle: saline with Tween-80
# [6] = dose: 50.0 mg/kg/injection, schedule: Q01DX005 (ip), vehicle: saline with Tween-80
# [7] = dose: 100.0 mg/kg/injection, schedule: Q01DX005 (ip), vehicle: saline with Tween-80
# [8] = dose: 3.12 mg/kg/injection, schedule: Q01DX009 (ip), vehicle: saline
# [9] = dose: 6.25 mg/kg/injection, schedule: Q01DX009 (ip), vehicle: saline
# [10] = dose: 50.0 mg/kg/injection, schedule: Q01DX005 (ip), vehicle: saline
# [11] = dose: 100.0 mg/kg/injection, schedule: Q01DX005 (ip), vehicle: saline
compound,measurement,setting,value
CC1(C)OC2C(COC(c3ccccc3)(c3ccccc3)c3ccccc3)OC(n3ccc(=O)[nH]c3=O)C2O1 (centres undefined),T/C,"dose: 50.0 mg/kg/injection, schedule: Q01DX005 (ip), vehicle: Klucel (hydroxypropylcellulose) (HPC)",97 % of control
same,T/C,"dose: 100.0 mg/kg/injection, schedule: Q01DX005 (ip), vehicle: Klucel (hydroxypropylcellulose) (HPC)",89 % of control
same,T/C,"dose: 200.0 mg/kg/injection, schedule: Q01DX005 (ip), vehicle: Klucel (hydroxypropylcellulose) (HPC)",88 % of control
NC1=N[C@H]2CS[C@@H](CCCCC(=O)ON3C(=O)CCC3=O)[C@H]2N1,T/C,"dose: 60.0 mg/kg/injection, schedule: Q01DX005 (ip), vehicle: saline",98 % of control
same,T/C,"dose: 120.0 mg/kg/injection, schedule: Q01DX005 (ip), vehicle: saline",100 % of control
same,T/C,"dose: 240.0 mg/kg/injection, schedule: Q01DX005 (ip), vehicle: saline",98 % of control
O=C1CC2CCC(CN2C(=O)OCc2ccccc2)O1 (centres undefined),T/C,"dose: 60.0 mg/kg/injection, schedule: Q01DX005 (ip), vehicle: Klucel (hydroxypropylcellulose) (HPC)",102 % of control
same,T/C,"dose: 120.0 mg/kg/injection, schedule: Q01DX005 (ip), vehicle: Klucel (hydroxypropylcellulose) (HPC)",99 % of control
same,T/C,"dose: 240.0 mg/kg/injection, schedule: Q01DX005 (ip), vehicle: Klucel (hydroxypropylcellulose) (HPC)",100 % of control
CC[C@@]1(O)C(=O)OCc2c1cc1n(c2=O)Cc2cc3c(OC)cccc3nc2-1,T/C,"dose: 0.39 mg/kg/injection, schedule: Q04DX003 (ip), vehicle: other",115 % of control
same,T/C,"dose: 1.0 mg/kg/injection, schedule: Q01DX009 (ip), vehicle: saline with Tween-80",217 % of control
same,T/C,"dose: 1.5 mg/kg/injection, schedule: Q01DX009 (ip), vehicle: saline with Tween-80",181 % of control and 192 % of control
same,T/C,"dose: 2.25 mg/kg/injection, schedule: Q01DX009 (ip), vehicle: saline with Tween-80",100 % of control
same,T/C,"dose: 3.0 mg/kg/injection, schedule: Q01DX009 (ip), vehicle: saline with Tween-80",103 % of control
same,T/C,"dose: 3.13 mg/kg/injection, schedule: Q04DX003 (ip), vehicle: other",191 % of control
same,T/C,"dose: 6.25 mg/kg/injection, schedule: Q04DX003 (ip), vehicle: other",90 % of control
CN(C)CCCC1(c2ccccc2)SC(C)(C)c2ccc(Cl)cc21 (centres undefined),T/C,"dose: 25.0 mg/kg/injection, schedule: Q01DX001 (ip), vehicle: Klucel (hydroxypropylcellulose) (HPC)",102 % of control
same,T/C,[1],100 % of control
CCOC(=O)CN1C=CC(=C/C(=N/S(=O)(=O)c2ccc(C)cc2)SC)C=C1,T/C,"dose: 25.0 mg/kg/injection, schedule: Q04DX002 (ip), vehicle: saline with Tween-80",100 % of control
same,T/C,"dose: 50.0 mg/kg/injection, schedule: Q04DX002 (ip), vehicle: saline with Tween-80",106 % of control
same,T/C,[2],104 % of control
CC(C)CCCC(C)C1CCC2C3CC=C4CC(OC(=O)C56C=CC(=O)C5C5C=CC6CC5)CCC4(C)C3CCC12C (centres undefined),T/C,"dose: 1.56 mg/kg/injection, schedule: Q01DX005 (ip), vehicle: distilled water + Tween-80",100 % of control
same,T/C,"dose: 3.12 mg/kg/injection, schedule: Q01DX005 (ip), vehicle: distilled water + Tween-80",90 % of control
same,T/C,"dose: 200.0 mg/kg/injection, schedule: Q01DX005 (ip), vehicle: distilled water + Tween-80",86 % of control
CSc1nc2ccc(NC(=O)CCC(=O)O)cc2s1,T/C,"dose: 6.25 mg/kg/injection, schedule: Q01DX009 (ip), vehicle: Klucel (hydroxypropylcellulose) (HPC)",104 % of control
same,T/C,"dose: 12.5 mg/kg/injection, schedule: Q01DX009 (ip), vehicle: Klucel (hydroxypropylcellulose) (HPC)",101 % of control
same,T/C,[3],107 % of control
CC1(C(=O)O)CCC2(C)CCC3(C)C(=CC(=O)C4C5(C)CCC(O)C(C)(C)C5CCC43C)C2C1 (centres undefined),T/C,[3],95 % of control
same,T/C,"dose: 50.0 mg/kg/injection, schedule: Q01DX009 (ip), vehicle: Klucel (hydroxypropylcellulose) (HPC)",100 % of control
same,T/C,"dose: 50.0 mg/kg/injection, schedule: Q04DX003 (ip), vehicle: Klucel (hydroxypropylcellulose) (HPC)",105 % of control
same,T/C,"dose: 100.0 mg/kg/injection, schedule: Q01DX009 (ip), vehicle: Klucel (hydroxypropylcellulose) (HPC)",94 % of control
same,T/C,"dose: 100.0 mg/kg/injection, schedule: Q04DX003 (ip), vehicle: Klucel (hydroxypropylcellulose) (HPC)",100 % of control
same,T/C,"dose: 200.0 mg/kg/injection, schedule: Q01DX009 (ip), vehicle: Klucel (hydroxypropylcellulose) (HPC)",94 % of control
same,T/C,"dose: 200.0 mg/kg/injection, schedule: Q04DX003 (ip), vehicle: Klucel (hydroxypropylcellulose) (HPC)",106 % of control
COn1cc(C(=O)O)c(=O)c2c3sc(=O)n(C)c3ccc21,T/C,[4],101 % of control
same,T/C,"dose: 100.0 mg/kg/injection, schedule: Q01DX009 (ip), vehicle: saline with Tween-80",94 % of control
same,T/C,"dose: 200.0 mg/kg/injection, schedule: Q01DX009 (ip), vehicle: saline with Tween-80",99 % of control
C=CC(=O)NCC(=O)O,T/C,"dose: 50.0 mg/kg/injection, schedule: Q01DX009 (ip), vehicle: saline",100 % of control
same,T/C,"dose: 100.0 mg/kg/injection, schedule: Q01DX009 (ip), vehicle: saline",103 % of control
same,T/C,"dose: 200.0 mg/kg/injection, schedule: Q01DX009 (ip), vehicle: saline",109 % of control
CCN(CC)CCOCc1ccc2c(c1)OCO2,T/C,[5],113 % of control
same,T/C,[6],113 % of control
same,T/C,[7],111 % of control
CCCCCCCCCC[N+]1(CC)CCCC1,T/C,[8],104 % of control
same,T/C,[9],100 % of control
CC(=O)Nn1cnc2ccccc2c1=O,T/C,"dose: 25.0 mg/kg/injection, schedule: Q04DX003 (ip), vehicle: saline with Tween-80",97 % of control
same,T/C,"dose: 50.0 mg/kg/injection, schedule: Q04DX003 (ip), vehicle: saline with Tween-80",90 % of control
same,T/C,"dose: 100.0 mg/kg/injection, schedule: Q04DX003 (ip), vehicle: saline with Tween-80",93 % of control
same,T/C,"dose: 200.0 mg/kg/injection, schedule: Q04DX003 (ip), vehicle: saline with Tween-80",101 % of control
C/C(=N\NC(=O)c1ccccc1O)c1cccc(/C(C)=N/NC(=O)c2ccccc2O)n1,T/C,[8],110 % of control
same,T/C,[9],114 % of control
O=C(N/N=C\c1c(O)ccc2ccccc12)c1ccncc1,T/C,[6],104 % of control
same,T/C,[7],105 % of control
Nc1ncnc2nc(C3OC(CO)C(O)C3O)[nH]c12 (centres undefined),T/C,"dose: 60.0 mg/kg/injection, schedule: Q01DX005 (ip), vehicle: saline with Tween-80",104 % of control
same,T/C,"dose: 120.0 mg/kg/injection, schedule: Q01DX005 (ip), vehicle: saline with Tween-80",98 % of control
same,T/C,"dose: 240.0 mg/kg/injection, schedule: Q01DX005 (ip), vehicle: saline with Tween-80",95 % of control
CCN(CC)CCC(O)c1ccc(Cl)c2ccccc12 (centres undefined),T/C,[10],106 % of control
same,T/C,[11],101 % of control
Cc1cc(NCc2ccccc2)cc(=O)[nH]1,T/C,"dose: 100.0 mg/kg/injection, schedule: Q01DX001 (ip), vehicle: saline with Tween-80",95 % of control
same,T/C,"dose: 200.0 mg/kg/injection, schedule: Q01DX001 (ip), vehicle: saline with Tween-80",89 % of control
same,T/C,"dose: 400.0 mg/kg/injection, schedule: Q01DX001 (ip), vehicle: saline with Tween-80",87 % of control
Cc1cc(C)c(N(C)C)c(C)c1,T/C,[2],109 % of control
same,T/C,"dose: 200.0 mg/kg/injection, schedule: Q04DX002 (ip), vehicle: saline with Tween-80",110 % of control
CCCCOCN(COCCCC)C12CC3CC(CC(C3)C1)C2,T/C,[4],113 % of control
CCOc1ccc(C(C)c2cc3c(cc2OCC)OCO3)cc1 (centres undefined),T/C,[5],120 % of control
same,T/C,"dose: 200.0 mg/kg/injection, schedule: Q01DX005 (ip), vehicle: saline with Tween-80",157 % of control
CN1NC(C2NN(C)C(=O)N(C)N2)NN(C)C1=O,T/C,[10],102 % of control
same,T/C,[11],102 % of control
same,T/C,"dose: 200.0 mg/kg/injection, schedule: Q01DX005 (ip), vehicle: saline",107 % of control
CC(=O)Oc1ccccc1C(=O)OCC(=O)c1ccc2c(c1)Nc1ccccc1S2,T/C,"dose: 1.56 mg/kg/injection, schedule: Q01DX001 (ip), vehicle: Klucel (hydroxypropylcellulose) (HPC)",93 % of control
same,T/C,"dose: 3.13 mg/kg/injection, schedule: Q01DX001 (ip), vehicle: Klucel (hydroxypropylcellulose) (HPC)",95 % of control
same,T/C,"dose: 6.25 mg/kg/injection, schedule: Q01DX001 (ip), vehicle: Klucel (hydroxypropylcellulose) (HPC)",90 % of control
same,T/C,[1],87 % of control
same,T/C,"dose: 200.0 mg/kg/injection, schedule: Q01DX001 (ip), vehicle: Klucel (hydroxypropylcellulose) (HPC)",94 % of control
